Data on 42 molecules can be found in article PMC6473174, “Ranking Hits From Saturation Transfer Difference Nuclear Magnetic Resonance–Based Fragment Screening” (Frontiers in Chemistry, 2019).

Test [1] deals with Beta-lactamase (ampC; P00811). Particulars: read-out: Affinity; AmpC fragment complexes, Figure 2; ref Barelier et al., 2014; cited from earlier work.
Test [2] addresses Heat shock protein HSP 90-alpha (HSP90AA1; P07900). Details: method as in Roughley and Hubbard, 2011. The conditions noted are these: HSP90 fragment complexes, Figure 2; ref Roughley and Hubbard, 2011; read-out: Affinity; cited from earlier work.
Test [3] addresses cAMP and cAMP-inhibited cGMP 3',5'-cyclic phosphodiesterase 10A (PDE10A; Q9Y233). On the set-up: method as in Recht et al., 2014. Particulars: PDE10A fragment complexes, Figure 2; ref Recht et al., 2014; read-out: Affinity; cited from earlier work.
Test [4] has as its target Glycogen synthase kinase-3 beta (GSK3B; P49841). Particulars: GSK3b complex PDB 4J71, Figure S4; read-out: Affinity; cited from earlier work.
Test [5] has as its target T1, murine langerin (Mus musculus, UniProt Q8VBX4).
T1 sequence (Q8VBX4 1-331): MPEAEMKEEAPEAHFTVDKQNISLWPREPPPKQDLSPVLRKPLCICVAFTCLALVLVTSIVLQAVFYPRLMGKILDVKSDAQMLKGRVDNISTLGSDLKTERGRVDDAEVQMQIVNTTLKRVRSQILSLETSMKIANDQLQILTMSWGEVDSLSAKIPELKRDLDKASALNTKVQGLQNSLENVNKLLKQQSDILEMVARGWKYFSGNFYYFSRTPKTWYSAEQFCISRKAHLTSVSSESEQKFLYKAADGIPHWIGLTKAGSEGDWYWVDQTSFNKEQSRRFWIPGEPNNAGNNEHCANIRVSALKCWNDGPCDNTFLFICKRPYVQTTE
As to the kind of experiment: STD NMR measurements (fragment screening and epitope mapping), STD amplification factor. Format: binding. How it is done: STD NMR experiments were performed as described elsewhere (Aretz et al., [2018]). Briefly, 10 μM murine langerin was screened against a library of 660 fragments at a ligand concentration [L] = 0.2 mM using a saturation time of tsat = 4 s. Hits were counter-screened by SPR (see the section Estimation of Affinity Using Surface Plasmon Resonance), enabling affinity estimation and hit validation. For SPR-validated hits, the STD amplification factor was determined as reported earlier (Mayer and Meyer, [2001]) and plotted against affinity (Figure 1A). For epitope mapping of thiazolopyrimidine derivatives (Figure 2E), protein concentration was [P] = 20 μM, ligand concentration was [L] = 0.5–1 mM, and tsat = 1 s. Affinity of all derivatives was estimated by SPR (see the section Estimation of Affinity Using Surface Plasmon Resonance), and the STD amplification factor was determined as reported earlier for the proton in the 7-position of the thiazolopyrimidine scaffold (Mayer and Meyer, [2001]). Spectra were analyzed in MestReNova 10.0.0.

In test [6] the target is T1, murine langerin. On the set-up: method as in Aretz et al. (2018). Particulars: estimated by SPR; murine langerin on CM7 chip; 25 mM HEPES pH 7.6, 150 mM NaCl, 5 mM CaCl2, 0.005% Tween-20; ref Aretz et al. (2018); read-out: Affinity; cited from earlier work.
[7] abbreviates: Figure 1a fragment screening, [P] = 10 μM, [L] = 0.2 mM, tsat = 4 s.

Each structure is given as a SMILES string. Some results are limits rather than exact numbers.

With `O=C(O)c1sccc1S(=O)(=O)NC1CC1` [4KZA], the Kd in test [1] is 0.2 mM.
`C[C@@H](C(=O)O)N(c1ccccc1)S(C)(=O)=O` [4KZB]: the Kd in test [1] is 1.3 mM.
Turning to `NC(=O)c1ccccc1N` [CHEMBL43175], the Kd in test [2] is above 0.4 mM.
On to `CC1CCCC(C(=O)O)N1C(=O)CCS` (stereo not shown) [CHEMBL331575], for which, in test [1], the Kd was 0.8 mM.
Regarding `Cc1nc2ccccc2c(=O)[nH]1` [CHEMBL395092], the Kd in test [3] is 0.99 mM.
Take `CCC(=O)c1ccc(O)cc1O` [CHEMBL539379]: the Kd in test [2] was 0.57 mM.
Consider `COC(=O)Cc1cc(O)cc(O)c1` [CHEMBL540934], for which the Kd in test [2] was 0.49 mM.
For the molecule `CCN1C(=O)CC(=O)N(CC)C1=S` [CHEMBL2136061], the Kd in test [1] is 1.6 mM.
Regarding `C[C@@H]1Nc2cccnc2NC1=O` [CHEMBL3941552], the Kd in test [4] is above 3 mM.
As to `Cc1nnc(-c2ccccc2)nc1O` [S3], in test [5] (setting [7]), the STD amplification factor turned out to be 19. The Kd in test [6] was 4.7 ± 0.6 mM.
`O=C(O)Cc1cccc2occc12` [S6]: the STD amplification factor in test [5] (setting [7]) is given as 55. The Kd in test [6] is 4.3 ± 0.5 mM.
In test [5] (setting [7]), `Cc1ccsc1/C=C/C(=O)O` [S8] came in with an STD amplification factor of 86. Further, the Kd in test [6] was 3.4 ± 0.4 mM.
In the case of `Nc1cccc2c1CN(C1CCCCC1)C2=O` [S11], the STD amplification factor in test [5] (setting [7]) came to 23. In test [6], the Kd was 0.7 ± 0.2 mM.
For `COc1ccc2c(c1)C(CC(=O)O)CC2=O` (stereo not shown) [S12], the STD amplification factor in test [5] (setting [7]) is given as 10. Also, the Kd in test [6] was 1.1 ± 0.2 mM.
Regarding `N#Cc1c(N)sc2c1CCCC2` [S13], in test [5] (setting [7]), the STD amplification factor is recorded as 33. Besides, the Kd in test [6] is 1.5 ± 0.3 mM.
Consider `O=C(O)/C=C/c1ccc2c(c1)OCCO2` [S14], for which the STD amplification factor in test [5] (setting [7]) was 36. For the same molecule, the Kd in test [6] is 2.2 ± 0.2 mM.
With `CN(C)S(=O)(=O)c1cccc(C(=O)O)c1` [S15], in test [5] (setting [7]), the STD amplification factor came out at 41. In test [6], the Kd was 11.3 ± 3 mM.
For the molecule `NC(=O)c1ccc(Cl)s1` [S18], the STD amplification factor in test [5] (setting [7]) was determined as 21. The Kd in test [6] is 3.5 ± 0.2 mM.
Consider `CCC(C)(C(=O)O)c1cccs1` (stereo not shown) [S21], for which the STD amplification factor in test [5] (setting [7]) was 13. Further, the Kd in test [6] is 3.3 ± 0.2 mM.
In turn, `CN(C)C(=O)Oc1cccc(C(=O)O)c1` [S22] yielded an STD amplification factor in test [5] (setting [7]) of 24. Also, the Kd in test [6] is around 4 mM.
On to `O=C1NC(=O)[C@@H]2CN(Cc3ccccc3)C[C@H]12` [S23], for which the STD amplification factor in test [5] (setting [7]) was determined as 4. For the same molecule, the Kd in test [6] was 4.9 ± 0.2 mM.
`c1ccc(-c2nnc3n2CCCC3)cc1` [S30] registered an STD amplification factor in test [5] (setting [7]) of 8. Also, the Kd in test [6] is 10 ± 3 mM.
Regarding `COc1ccccc1/C=C1/C(=O)N=C(N)N1C` [S31], the STD amplification factor in test [5] (setting [7]) is recorded as 5. The Kd in test [6] was 4 ± 2 mM.
Take `CC(=O)c1ccn(S(=O)(=O)c2ccccc2)c1` [S36]: in test [5] (setting [7]), the STD amplification factor was found to be 44. Moreover, the Kd in test [6] is 19 ± 1 mM.
With `CCN1C(=O)c2ccccc2NC12CCCC2` [S37], the STD amplification factor in test [5] (setting [7]) was 2. Further, the Kd in test [6] was 13 ± 2 mM.
`Cc1cc(C)c(S(=O)(=O)C(C)C)c(Cl)n1` [S38] showed an STD amplification factor in test [5] (setting [7]) of 4. In addition, the Kd in test [6] is 4.7 ± 0.7 mM.
As for `COC(=O)c1cc(C)c(N)c(Br)c1` [S39], in test [5] (setting [7]), the STD amplification factor is on record as 49. Besides, in test [6], the Kd is 28 ± 9 mM.
`COc1cc(C(=O)O)c(Br)cc1C` [S42]: the STD amplification factor in test [5] (setting [7]) came to 79. Further, the Kd in test [6] was 5.4 ± 0.9 mM.
In turn, `CNC(=O)Nc1nnc(C(C)(C)C)s1` [S44] gave an STD amplification factor in test [5] (setting [7]) of 7. The Kd in test [6] is 2.9 ± 0.4 mM.
Consider `CN(C)C(=O)c1csc(-c2ccccc2)n1` [S52], for which the STD amplification factor in test [5] (setting [7]) was 3. Besides, the Kd in test [6] is 2.7 ± 0.4 mM.
Consider `Cn1cc(CC(=O)O)c2ccccc21` [S53], for which the STD amplification factor in test [5] (setting [7]) amounted to 37. Moreover, the Kd in test [6] is 3 ± 0.1 mM.
`O=C(O)c1cccn(Cc2ccccc2)c1=O` [S55] had an STD amplification factor in test [5] (setting [7]) of 10. In addition, the Kd in test [6] is 24.7 ± 10.3 mM.
Take `COc1ccc(NS(C)(=O)=O)cc1` [S56]: the STD amplification factor in test [5] (setting [7]) amounted to 3. Further, the Kd in test [6] is 16.8 ± 3.6 mM.
In test [5] (setting [7]), `CC(=O)Nc1ccc2nc(C)oc2c1` [S57] came in with an STD amplification factor of 2. For the same molecule, the Kd in test [6] was 5.7 ± 0.4 mM.
Regarding `OCc1cc(-c2ccccc2)on1` [S58], in test [5] (setting [7]), the STD amplification factor was determined as 19. In addition, the Kd in test [6] is 2.3 ± 0.1 mM.
For `CCNCc1cc(O)ccc1Br` [S59], the STD amplification factor in test [5] (setting [7]) amounted to 13. For the same molecule, the Kd in test [6] was 2 ± 0.3 mM.
In test [5] (setting [7]), `O=C(Nc1ccccc1O)c1cccnc1Cl` [S60] showed an STD amplification factor of 24. The Kd in test [6] was 2.4 ± 0.1 mM.
On to `O=C1NC(=O)C(Cc2ccncc2)S1` (stereo not shown) [S61], for which the STD amplification factor in test [5] (setting [7]) is on record as 16. Besides, the Kd in test [6] is 3.8 ± 0.3 mM.
On to `COc1cc(C(C)=O)ccc1N` [S63], for which the STD amplification factor in test [5] (setting [7]) was determined as 4. Also, the Kd in test [6] was 9 ± 1 mM.
`COC(=O)c1cc2c(s1)CCC2` [S65]: the STD amplification factor in test [5] (setting [7]) came to 43. Also, in test [6], the Kd was 4.5 ± 0.7 mM.
`Nc1ccc2sc(C(=O)O)cc2c1` [S66] returned an STD amplification factor in test [5] (setting [7]) of 44. Further, in test [6], the Kd is 11.6 ± 0.1 mM.
As for `O=c1c(-c2ccn[nH]2)cnc2sccn12` [compound 1], the STD amplification factor in test [5] (setting [7]) is 16; in test [5] (Figure 2e thiazolopyrimidine SAR, proton in 7-position, [P] = 20 μM, [L] = 0.5–1 mM, tsat = 1 s) it was 1.8. For the same molecule, the Kd in test [6] is 0.8 ± 0.1 mM.
